For this assay, the system named is platelet aggregation. Briefly: inhibition of arachidonic acid-induced platelet aggregation in beagle platelet rich plasma (PRP), light transmission. The assay is classed as cell-based. The settings on record: Canis lupus familiaris, arachidonic acid inducer, 37°. Here is the method:
That the prostacyclins of formulas I-A and I-B of this invention are active as anti-blood platelet aggregating agents can be seen from the administration of (5Z,7β,9α,11α,13E,15R)-7-fluoro-6,9-epoxy-11,15-dihydroxy-16,16-dimethyl-prosta-5,13-dien-1-oic acid methyl ester by the following test.
30 Ml. of blood was drawn from the jugular vein of a conscious beagle using two 15 ml. Vacutainer tubes, with no additive, connected to a 20 g. 1 inch multiple sample needle. The blood was immediately transferred to a 50 ml. conical plastic centrifuge tube containing 3 ml. of 3.8% sodium citrate (3.8 grams of sodium citrate crystal, Na3 C6 H5 O7.2H2 O, in 100 ml. of distilled water), capped and gently mixed. The citrated blood was centrifuged at 160 g. for 15 minutes at 20° C. The platelet rich plasma (PRP) was carefully withdrawn with a pipette, without disturbing the buffy coat and erythrocyte layers. The PRP was placed in 16×125 mm plastic tubes, capped and stored at room temperature 19°-21° C. PRP preparations showing a tinge of redness, indicative of hemolysis, were discarded. The remaining blood, after the removal of PRP, was recentrifuged at higher speed, 900 g. for 10 minutes, to yield platelet poor plasma (PPP). The PRP was used immediately and the aggregation study completed within three hours after preparation.
Platelet aggregation was measured with a Payton duel channel aggregation module connected to a duel pen recorder for the continuous recording of the increase in light transmission due to clumping of platelets. The 0-100% transmission scale was set with PRP (0%) and PPP (100%). The temperature was set at 37° and the stirring speed at 900 rpm. 0.45 Ml. of PRP was added to a cuvette containing a teflon coating stirring bar and prewarmed at 37° in a water bath. 5 μl of various concentrations of (5Z,7β,9α,11α,13E,15R)-7-fluoro-6,9-epoxy-11,15-dihydroxy-16,16-dimethyl-prosta-5,13-dien-1-oic acid methyl ester, diluted from a stock solution of 5×10^-4 M in DMSO (dimethylsulfoxide) with phosphate buffered saline containing 1 mg/ml. of bovine serum albumin, fraction V, was added and stirred for 1 minute. The inducer of aggregation, arachidonic acid, at a concentration which will cause 50-70% aggregation after 5 minutes, was then added in 50 μl of solution. The % inhibition, set forth in the following Table, was calculated from the ratio of the % aggregation with (5Z,7β,9α,11α,13E,15R)-7-fluoro-6,9-epoxy-11,15-dihydroxy-16,16-dimethyl-prosta-5,13-dien-1-oic acid methyl ester over that with the vehicle×100.
The preparation of phosphate buffered saline and arachidonic acid solution used above is as follows: Phosphate buffered saline (PBS) was prepared by adding 1 mM solution of sodium phosphate aqueous buffer, pH 7.4 to 0.85% by weight/volume of an aqueous sodium chloride solution. Arachidonic acid solution was prepared as follows: A stock solution of 10 mg. per ml. in absolute ETOH was prepared and stored in freezer. To make a 10 mM solution, 0.3 ml. of the stock solution was evaporated to near dryness under nitrogen and redissolved in 0.75 ml. of 0.02NH4 OH (freshly prepared) and 0.2 ml. of PBS. Further dilutions of arachidonic acid were made with NH4 OH and PBS mixture.

A word on the inhibition: it is the percentage by which the read-out fell short of the control. High values mean a response far below the control, low ones a response near the control. On to `CCCCC(C)(C)[C@H](O)/C=C/[C@@H]1[C@@H]2[C@H](C[C@H]1O)O/C(=C\CCCC(=O)OC)[C@H]2F` [(5Z,7β,9α,11α,13E,15R)-7-fluoro-6,9-epoxy-11,15-dihydroxy-16,16-dimethyl-prosta-5,13-dien-1-oic acid methyl ester], for which at 0.0001 µM the inhibition (concentration 1 × 10^-10 M) was 20.8%. Where the note is “concentration 1 × 10^-11 M”, the inhibition at 10 pM stood at 57.8%. This compound also showed an inhibition at 1 pM (concentration 1 × 10^-12 M) of 71.4%. Also, the inhibition at 100 fM (concentration 1 × 10^-13 M) came to 14.2%. The inhibition at 300 fM (concentration 3 × 10^-13 M) is 20.8%.

The values are drawn from patent US4558142A, “7-Fluoro-prostacyclin analogs” (Hoffmann-La Roche Inc., priority 1982, dated 1985).
